# Measured values reported in ChEMBL document CHEMBL4251578, “Design, synthesis and biological evaluation of novel 2-aminobenzamides containing dithiocarbamate moiety as histone deacetylase inhibitors and potent antitumor agents” (Eur J Med Chem, 2018).
# pIC50: −log10 of the molar value.
# Legend:
# [1] = system: A-375; assay: Antiproliferative activity against human A375 cells at 2 uM after 72 hrs by CCK-8 assay relative to control; format: functional; details: A-375, 72 h
# [2] = system: A-375; assay: Antiproliferative activity against human A375 cells at 8 uM after 72 hrs by CCK-8 assay relative to control; format: functional; details: A-375, 72 h
# [3] = system: MGC-803; assay: Antiproliferative activity against human MGC803 cells at 2 uM after 72 hrs by CCK-8 assay relative to control; format: functional; details: MGC-803, 72 h
# [4] = system: HeLa; assay: Antiproliferative activity against human HeLa cells at 8 uM after 72 hrs by CCK-8 assay relative to control; format: functional
# [5] = system: MGC-803; assay: Antiproliferative activity against human MGC803 cells at 8 uM after 72 hrs by CCK-8 assay relative to control; format: functional; details: MGC-803, 72 h
# [6] = system: HeLa; assay: Antiproliferative activity against human HeLa cells at 2 uM after 72 hrs by CCK-8 assay relative to control; format: functional
# [7] = system: MGC-803; assay: Antiproliferative activity against human MGC803 cells after 72 hrs by CCK-8 assay; format: functional, cell-based; details: MGC-803, 72 h
# [8] = system: A-375; assay: Antiproliferative activity against human A375 cells after 72 hrs by CCK-8 assay; format: functional, cell-based; details: A-375, 72 h
# [9] = system: HCT-116; assay: Antiproliferative activity against human HCT116 cells after 72 hrs by CCK-8 assay; format: functional, cell-based; details: HCT-116, 72 h
# [10] = system: SMMC-7721; assay: Antiproliferative activity against human SMMC7721 cells after 72 hrs by CCK-8 assay; format: functional, cell-based; details: SMMC-7721, 72 h
# [11] = system: NCI-H1299; assay: Antiproliferative activity against human NCI-H1299 cells after 72 hrs by CCK-8 assay; format: functional, cell-based; details: NCI-H1299, 72 h
# [12] = system: SMMC-7721; assay: Cell cycle arrest in human SMMC7721 cells assessed as accumulation of cells at G0/G1 phase at 0.125 umol/L after 72 hrs by propidium iodide staining-based flow cytometric analysis (reference value: 80.65%); format: functional
# [13] = system: HeLa; assay: Antiproliferative activity against human HeLa cells after 72 hrs by CCK-8 assay; format: functional, cell-based
pIC50 [7],pIC50 [8],pIC50 [9],pIC50 [10],pIC50 [11],pIC50 [13],SMILES,inhibition at 2 µM [1],inhibition at 8 µM [2],inhibition at 2 µM [3],inhibition at 8 µM [4],inhibition at 8 µM [5],inhibition at 2 µM [6],Activity [12]
,,,,,,CN(Cc1cccnc1)C(=S)SCc1ccc(C(=O)Nc2ccccc2N)cc1,39.4%,83.8%,45.9%,68.7%,85.5%,16.4%,
,,,,,,CN1CCN(C(=S)SCc2ccc(C(=O)Nc3ccccc3N)cc2)CC1,36.6%,91.6%,29.6%,75.7%,84.4%,52.6%,
,,,,,,Nc1ccccc1NC(=O)c1ccc(CSC(=S)N2CCCc3ccccc32)cc1,26.5%,81.5%,38.5%,35.7%,87.5%,26.1%,
5.72,5.28,5.49,5.73,5.48,,Nc1ccccc1NC(=O)c1ccc(CSC(=S)N2CCc3cc(Cl)ccc32)cc1,31.9%,82.3%,57.7%,65.1%,82.2%,40.1%,
5.79,5.58,5.88,5.53,5.89,5.64,CC1CCCCN1C(=S)SCc1ccc(C(=O)Nc2ccccc2N)cc1 (stereo not given),42.5%,85.2%,64.4%,76.3%,86.9%,45.5%,Dose-dependent effect
,4.95,,,4.47,4.74,CC(=O)Nc1ccc(C(=O)Nc2ccccc2N)cc1 [TACEDINALINE],13.4%,33.5%,9.5%,24.3%,22.4%,7.3%,
,,,,,,Nc1ccccc1NC(=O)c1ccc(CSC(=S)N2CCN(Cc3ccccc3)CC2)cc1,10.6%,29.3%,18.1%,31.3%,19.7%,20.6%,
,,,,,,Nc1ccccc1NC(=O)c1ccc(CSC(=S)N2CCN(c3ncccn3)CC2)cc1,24%,67.9%,28.4%,73.9%,64.8%,52.2%,
,,,,,,CN(C(=S)SCc1ccc(C(=O)Nc2ccccc2N)cc1)c1cccnc1,26.5%,87.7%,46.1%,70.5%,82.5%,16%,
5.48,5.23,4.88,< 4.49,5.69,5.45,COC(=O)c1ccc2c(c1)CCN2C(=S)SCc1ccc(C(=O)Nc2ccccc2N)cc1,37.5%,79.2%,37.8%,60.1%,73.1%,45.3%,
,,,,,,Nc1ccccc1NC(=O)c1ccc(CSC(=S)N2CCN(c3cccnc3)CC2)cc1,40.5%,88.8%,27.6%,72.5%,76.9%,66.2%,
,,,,,,N#Cc1ccc(N2CCN(C(=S)SCc3ccc(C(=O)Nc4ccccc4N)cc3)CC2)cc1,41.4%,62.9%,34.5%,70.6%,37.6%,71.6%,
,,,,,,Nc1ccccc1NC(=O)c1ccc(CSC(=S)N2CCN(c3cnccn3)CC2)cc1,29.1%,85.8%,27.1%,76.9%,80.5%,70.4%,
,,,,,,CN(Cc1ccncc1)C(=S)SCc1ccc(C(=O)Nc2ccccc2N)cc1,31.4%,86.1%,38.1%,72.7%,83.2%,29.5%,
,,,,,,Nc1ccccc1NC(=O)c1ccc(CSC(=S)N2CCN(C3CCCCC3)CC2)cc1,31.7%,89.9%,16.9%,76.1%,75.3%,30.6%,
,,,,,,Nc1ccccc1NC(=O)c1ccc(CSC(=S)N2CCN(Cc3cccnc3)CC2)cc1,31.5%,89.2%,37.7%,78%,64.6%,69.7%,

pIC50 [7],pIC50 [8],pIC50 [9],pIC50 [10],pIC50 [11],pIC50 [13],SMILES,inhibition at 2 µM [1],inhibition at 8 µM [2],inhibition at 2 µM [3],inhibition at 8 µM [4],inhibition at 8 µM [5],inhibition at 2 µM [6],Activity [12]
,,,,,,Nc1ccccc1NC(=O)c1ccc(CSC(=S)N2CCc3ccc([N+](=O)[O-])cc32)cc1,22.1%,42%,30.6%,62.1%,39.6%,45.7%,
,,,,,,CC1CCN(C(=S)SCc2ccc(C(=O)Nc3ccccc3N)cc2)CC1,32.7%,87.4%,28.1%,72.5%,81.9%,46.8%,
,,,,,,Nc1ccccc1NC(=O)c1ccc(CSC(=S)N2CCN(c3ccccc3F)CC2)cc1,18.7%,79.5%,33.7%,59.2%,86.4%,17.5%,
,,,,,,Nc1ccccc1NC(=O)c1ccc(CSC(=S)N2CCN(CCc3ccccc3)CC2)cc1,26.1%,76.6%,24.8%,37%,53.8%,21.9%,
,,,,,,Nc1ccccc1NC(=O)c1ccc(CSC(=S)N2CCN(Cc3ccncc3)CC2)cc1,33.1%,89.5%,18.4%,72.9%,79.3%,59.5%,
,,,,,,Nc1ccccc1NC(=O)c1ccc(CSC(=S)N2CCN(Cc3ccccn3)CC2)cc1,20.7%,82.4%,23.4%,61.4%,65.2%,14.2%,
,,,,,,COc1ccc(N2CCN(C(=S)SCc3ccc(C(=O)Nc4ccccc4N)cc3)CC2)cc1,28.1%,35.9%,25.3%,52.3%,22.9%,39.4%,
,,,,,,Nc1ccccc1NC(=O)c1ccc(CSC(=S)N2CCCC2)cc1,30.2%,89.5%,27%,77.8%,83.4%,51.3%,
5.64,5.39,5.57,5.52,5.54,5.46,Nc1ccccc1NC(=O)c1ccc(CSC(=S)N2CCc3ccccc32)cc1,25.7%,85.4%,44%,67%,87%,38%,
,,,,,,Nc1ccccc1NC(=O)c1ccc(CSC(=S)N2CCN(c3ccc(Cl)cc3)CC2)cc1,32.2%,29%,15%,44.8%,17.2%,51.2%,
,,,,,,Nc1ccccc1NC(=O)c1ccc(CSC(=S)N(Cc2ccccc2)Cc2ccccc2)cc1,10.9%,32.5%,11%,18.9%,30.7%,1%,
,,,,,,Nc1ccccc1NC(=O)c1ccc(CSC(=S)N2CCc3cc([N+](=O)[O-])ccc32)cc1,16.9%,29.5%,26.8%,43.6%,33.2%,32.6%,
5.67,5.44,5.63,5.54,6.21,6.08,Nc1ccccc1NC(=O)c1ccc(CSC(=S)N2CCN(c3ccccc3)CC2)cc1,27.5%,88.6%,42.3%,73.1%,87.4%,62.2%,
,,,,,,Nc1ccccc1NC(=O)c1ccc(CSC(=S)N2CCN(C(c3ccccc3)c3ccccc3)CC2)cc1,8.7%,8.4%,9.8%,13.8%,9.9%,8%,
,,,,,,Cc1ccc(N2CCN(C(=S)SCc3ccc(C(=O)Nc4ccccc4N)cc3)CC2)cc1,25.8%,26.4%,33.4%,24%,19.8%,25.3%,
4.77,5.03,5.56,< 4.49,6.01,,Nc1ccccc1NC(=O)c1ccc(CSC(=S)N2CCN(c3ccc(F)cc3)CC2)cc1,20.9%,76.3%,18.8%,64.5%,48.7%,60.8%,
